Laboratory results from patent US11542255B2, “Sulfonylureas and sulfonylthioureas as NLRP3 inhibitors” (Inflazome Limited, priority 2017, dated 2023).
Structures can show the parent of a compound that is named as a salt.

Tests used:
[1] = PK protocol, oral administration; type: in vivo, male Sprague Dawley rats; conditions: male, Sprague Dawley, rat, plasma, dose (mg/kg); for AUC / CL/F / Cmax / Tmax / half-life: po
Description: (§1) Pharmacokinetic parameters were determined in male Sprague Dawley rats (Charles River, UK, 250-350 g; or Vital River Laboratory Animal Technology Co Ltd, Beijing, China, 7-9 weeks old). Animals were individually housed during the study and maintained under a 12 h light/dark cycle. Animals had free access to food and water except that some orally dosed animals were food deprived overnight prior to the study.
(§2) For intravenous administration, compounds were formulated as a solution in water or […] in 2 mL/kg dosing volume and administered via tail vein. For oral administration, compounds were formulated as a solution in water or DMSO:water [10:90] in 5 mL/kg dosing volume and administered orally.
(§3) Serial blood samples (about 120-300 μL) were taken from each animal at each of 8 time-points post dose (0.083, 0.25, 0.5, 1, 2, 4, 8 and 24 h) or at each of 12 time-points post dose (0.03, 0.1, 0.17, 0.25, 0.5, 1, 2, 4, 6, 8, 12 and 24 h) or pre-dose and at each of 9 time-points post dose (0.25, 0.5, 1, 2, 4, 6, 8, 12 and 24 h). Samples were held on ice for no longer than 30 minutes before centrifugation (10,000 rpm (8,385 g) for 3 minutes; or 5,696 rpm (3,0009 for 15 minutes) for plasma generation. Plasma was frozen on dry ice prior to boanalysis. PK parameters were generated from LC-MS/MS data using Dotmatics or Phoenix WinNonlin 6.3 software.

NLRP3 [2] = biological target: T1, NLRP3 (Homo sapiens, UniProt Q96P20); test: THP-1 cells pyroptosis assay (LPS + nigericin, resazurin readout); type: cell-based; design: Seed THP-1 cells (25,000 cells/well) containing 1.0 μg/ml LPS in 40 μl of RPMI medium; host or cells: THP-1 cells; conditions: NLRP3 inhibitory activity, 1.0 μg/ml LPS, 5 μM nigericin
Outline: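 LPS-primed (1 μg/ml) THP-1 cells, 25,000/well in serum-free RPMI, given compound (8-point half-log, 10 μM top; 0.1% DMSO) for 3 h at 37 °C, then nigericin 5 μM for 1 h. Viability by resazurin (100 μM, 1-2 h), Ex 560/Em 590 nm; IC50 from 4-parameter variable-slope fit.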

NLRP3 [3] = biological target: T1, NLRP3; test: Human whole blood IL1β release assay (LPS + nigericin, AlphaLisa IL-1β); type: cell-based; design: Human whole blood in Li-heparin tubes was obtained from healthy donors from a volunteer donor panel; from tissue; host or cells: human whole blood from healthy donors; conditions: NLRP3 inhibitory activity, 1 μg/ml LPS, 10 μM nigericin, IL-1β release, read-out: HWB IC50
Outline: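 Donor human whole blood (Li-heparin) was primed with 1 μg/mL LPS while incubated with compound (8-point half-log, 10 μM top, 0.1% DMSO) for 3 h at 37° C., then stimulated with 10 μM nigericin for 1 h. Supernatant IL-1β measured by AlphaLISA; IC50 from 4-parameter nonlinear fit.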

[4] = PK protocol, intravenous administration; type: in vivo, male Sprague Dawley rats; conditions: male, Sprague Dawley, rat, plasma, dose (mg/kg); for Vd: read-out: Vdss
Description: as §1, §2, §3

T1 sequence (Q96P20 whole entry): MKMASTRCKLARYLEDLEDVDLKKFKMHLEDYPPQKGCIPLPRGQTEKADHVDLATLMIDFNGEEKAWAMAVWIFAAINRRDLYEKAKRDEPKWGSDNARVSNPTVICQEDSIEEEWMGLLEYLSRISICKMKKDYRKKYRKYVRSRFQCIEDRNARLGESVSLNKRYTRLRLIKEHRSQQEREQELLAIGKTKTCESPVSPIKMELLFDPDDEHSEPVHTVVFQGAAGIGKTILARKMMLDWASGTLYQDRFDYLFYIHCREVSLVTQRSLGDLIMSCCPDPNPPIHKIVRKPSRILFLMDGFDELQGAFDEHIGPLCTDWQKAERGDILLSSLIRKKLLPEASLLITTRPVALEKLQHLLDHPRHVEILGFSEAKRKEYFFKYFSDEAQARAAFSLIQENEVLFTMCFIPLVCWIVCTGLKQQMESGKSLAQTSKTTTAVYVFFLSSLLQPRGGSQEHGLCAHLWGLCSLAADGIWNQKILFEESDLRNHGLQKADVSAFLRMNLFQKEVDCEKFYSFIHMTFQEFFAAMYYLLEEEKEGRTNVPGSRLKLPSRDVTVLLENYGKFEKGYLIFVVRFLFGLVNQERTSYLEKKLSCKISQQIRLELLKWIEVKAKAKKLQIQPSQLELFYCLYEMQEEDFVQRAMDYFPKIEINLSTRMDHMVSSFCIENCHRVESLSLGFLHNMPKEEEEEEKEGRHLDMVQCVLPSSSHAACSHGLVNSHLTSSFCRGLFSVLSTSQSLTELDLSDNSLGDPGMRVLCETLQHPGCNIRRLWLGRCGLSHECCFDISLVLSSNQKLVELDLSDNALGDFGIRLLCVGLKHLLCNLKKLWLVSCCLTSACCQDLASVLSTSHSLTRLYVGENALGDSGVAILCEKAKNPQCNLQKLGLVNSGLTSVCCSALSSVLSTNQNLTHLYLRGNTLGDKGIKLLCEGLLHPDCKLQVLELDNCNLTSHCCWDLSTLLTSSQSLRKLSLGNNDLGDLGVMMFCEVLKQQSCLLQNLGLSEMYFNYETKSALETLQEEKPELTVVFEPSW

Work on `CC(c1cc(S(=O)(=O)NC(=O)Nc2c3c(cc4c2CCC4)CCC3)nn1C)N(C)C` (single isomer, unassigned; enantiomer 1) [Example 69, 5-(1-(Dimethylamino)ethyl)-N-((1,2,3,5,6,7-hexahydro-s-indacen-4-yl)carbamoyl)-1-methyl-1H-pyrazole-3-sulfonamide, Enantiomer 1] yielded an AUC [1] of 17000 ng·h/mL, a CL/F [1] of 4.2 mL/min/kg and a Cmax [1] of 7460 ng/mL. For the same compound, the Tmax [1] was 0.38 h, the half-life [1] was 1.2 h and the IC50 (NLRP3 [2]) was under 40 nM. For the same compound, the IC50 (NLRP3 [3]) was under 400 nM.
With `CN(C)Cc1cc(S(=O)(=O)NC(=O)Nc2c3c(cc4c2CCC4)CCC3)nn1C1CC1` [Example 7, 1-Cyclopropyl-5-((dimethylamino)methyl)-N-((1,2,3,5,6,7-hexahydro-s-indacen-4-yl)carbamoyl)-1H-pyrazole-3-sulfonamide] the AUC [4] was 3480 ng·h/mL, the clearance [4] was 4.9 mL/min/kg and the half-life [4] was 1.2 h. For the same compound, the Vd [4] was 0.36 L/kg, the bioavailability [1] was 204% and the AUC [1] was 21200 ng·h/mL. The CL/F [1] was 2.4 mL/min/kg, the Cmax [1] was 6690 ng/mL and the Tmax [1] was 1 h. The half-life [1] was 2.2 h, the IC50 (NLRP3 [2]) was under 40 nM and the IC50 (NLRP3 [3]) was 400 to 800 nM.
`CNCc1cc(S(=O)(=O)NC(=O)Nc2c3c(cc4c2CCC4)CCC3)nn1C(C)C` [Example 50, N-((1,2,3,5,6,7-Hexahydro-s-indacen-4-yl)carbamoyl)-1-isopropyl-5-((methylamino)methyl)-1H-pyrazole-3-sulfonamide] gave an AUC [4] of 11400 ng·h/mL, a clearance [4] of 1.5 mL/min/kg and a half-life [4] of 3.5 h. It also gave a Vd [4] of 0.39 L/kg, a bioavailability [1] of 84% and an AUC [1] of 19100 ng·h/mL. The CL/F [1] was 1.8 mL/min/kg, the Cmax [1] was 2410 ng/mL and the Tmax [1] was 1.3 h. It also gave a half-life [1] of 3.3 h, an IC50 (NLRP3 [2]) of 40 to 160 nM and an IC50 (NLRP3 [3]) of 400 to 800 nM.
In the case of `CC(c1cc(S(=O)(=O)NC(=O)Nc2c3c(cc4c2CCC4)CCC3)nn1C)N1CCC1` (stereo not drawn) [Example 76, 5-(1-(Azetidin-1-yl)ethyl)-N-((1,2,3,5,6,7-hexahydro-s-indacen-4-yl)carbamoyl)-1-methyl-1H-pyrazole-3-sulfonamide], the AUC [4] is reported as 4900 ng·h/mL, the clearance [4] is reported as 5.8 mL/min/kg and the half-life [4] is reported as 3.2 h. The Vd [4] was 0.66 L/kg, the bioavailability [1] was 45.6% and the AUC [1] was 5650 ng·h/mL. It also gave a CL/F [1] of 12.3 mL/min/kg, a Cmax [1] of 2340 ng/mL and a Tmax [1] of 0.5 h. The half-life [1] was 2.9 h, the IC50 (NLRP3 [2]) was 40 to 160 nM and the IC50 (NLRP3 [3]) was under 400 nM.
In the case of `CC(C)c1cc(F)cc(C(C)C)c1NC(=O)NS(=O)(=O)c1cc(CN(C)C)n(C)n1` [Example 92, 5-((Dimethylamino)methyl)-N-((4-fluoro-2,6-diisopropyl-phenyl)carbamoyl)-1-methyl-1H-pyrazole-3-sulfonamide, Sodium Salt], the AUC [4] is reported as 1280 ng·h/mL, the clearance [4] is reported as 13.1 mL/min/kg and the half-life [4] is reported as 3.2 h. The Vd [4] was 2.19 L/kg, the IC50 (NLRP3 [2]) was 160 to 640 nM and the IC50 (NLRP3 [3]) was under 400 nM.
With `CC(C)c1cc(Cl)cc(C(C)C)c1NC(=O)NS(=O)(=O)c1cc(CN(C)C)n(C)n1` [Example 93, N-((4-Chloro-2,6-diisopropylphenyl)carbamoyl)-5-((dimethylamino)methyl)-1-methyl-1H-pyrazole-3-sulfonamide, Sodium Salt] the AUC [4] was 4230 ng·h/mL, the clearance [4] was 10.8 mL/min/kg and the half-life [4] was 3.3 h. It also gave a Vd [4] of 1.71 L/kg, a bioavailability [1] of 31.3% and an AUC [1] of 3310 ng·h/mL. The CL/F [1] was 18 mL/min/kg, the Cmax [1] was 1100 ng/mL and the Tmax [1] was 0.36 h. The IC50 (NLRP3 [2]) was 40 to 160 nM and the IC50 (NLRP3 [3]) was 800 to 1600 nM.
For `CN(C)Cc1cc(S(=O)(=O)NC(=O)Nc2c3c(cc4c2CCC4)CCC3)nn1C` [Example 94, 5-((Dimethylamino)methyl)-N-((1,2,3,5,6,7-hexahydro-s-indacen-4-yl)carbamoyl)-1-methyl-1H-pyrazole-3-sulfonamide], the AUC [4] was 4700 ng·h/mL, the clearance [4] was 3.8 mL/min/kg and the half-life [4] was 1.1 h. The Vd [4] was 0.27 L/kg, the bioavailability [1] was 91.6% and the AUC [1] was 12900 ng·h/mL. The CL/F [1] was 4.1 mL/min/kg, the Cmax [1] was 7180 ng/mL and the Tmax [1] was 0.58 h. The half-life [1] was 1.5 h, the IC50 (NLRP3 [2]) was under 40 nM and the IC50 (NLRP3 [3]) was under 400 nM.
